Assay: xn = mol fraction of the nth substance listed

CC(C)CC(=O)CC(C)C + CCC(C)O
viscosity [mPa·s], 100 kPa
Conditions	x1 = 0.0815	x1 = 0.157	x1 = 0.2356	x1 = 0.3483	x1 = 0.4431	x1 = 0.5526	x1 = 0.6467	x1 = 0.7381	x1 = 0.8512	x1 = 0.9337
293.15 K	2.84	2.17	1.64	1.1	0.8	0.61	0.59	0.66	0.78	0.87
298.15 K	2.36	1.82	1.36	0.88	0.63	0.47	0.45	0.54	0.69	0.81
303.15 K	2	1.54	1.15	0.73	0.5	0.37	0.35	0.44	0.61	0.75
308.15 K	1.69	1.33	0.99	0.64	0.44	0.31	0.27	0.36	0.56	0.72
313.15 K	1.42	1.11	0.85	0.55	0.39	0.27	0.24	–	0.51	0.66
318.15 K	1.23	0.99	0.77	0.5	0.35	0.22	0.19	0.27	0.47	0.62
323.15 K	1.11	0.91	0.72	0.46	0.3	0.17	0.15	0.23	0.42	0.57

O=C1CCCCC1 + CCC(C)O
298.15 K, 101 kPa
Conditions	viscosity [mPa·s]
x1 = 0.1006	2.33
x1 = 0.209	1.9
x1 = 0.3005	1.66
x1 = 0.403	1.55
x1 = 0.4997	1.51
x1 = 0.6988	1.57
x1 = 0.8007	1.66
x1 = 0.8986	1.79

CC(=O)CC(C)C + CCCC(C)O
viscosity [mPa·s], 101.3 kPa
Conditions	x1 = 0.1036	x1 = 0.2131	x1 = 0.3003	x1 = 0.3959	x1 = 0.5098	x1 = 0.5963	x1 = 0.6924	x1 = 0.7942	x1 = 0.9001
298.15 K	2.26	1.61	1.32	1.12	0.924	0.821	0.712	0.646	0.589
303.15 K	1.93	1.41	1.16	1.01	0.848	0.76	0.664	0.607	0.557
308.15 K	1.65	1.25	1.05	0.91	0.78	0.705	0.62	0.571	0.527
313.15 K	1.41	1.1	0.965	0.837	0.718	0.658	0.601	0.553	0.502

Reference: the CheMixHub viscosity set
